Experimental data from article PMC12029774 (Molecules, 2025).
Ends that are not written are not given here.

Columns and labels:
[1] = system: rVSV-GFP-∆G-Spike, SARS-CoV-2 Omicron B.A1 spike; details: 1 h
[2] = system: rVSV-GFP-∆G-Spike, SARS-CoV-2 Delta spike; details: 1 h

## EWHGAHIKVTQLF-NH2 [PEP10]
[1]
  IC50: 140 µM
[2]
  IC50: 47 µM
